Laboratory results from PubChem BioAssay (NCI).
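Method: 48-hour compound exposure of cells in 96-well plates, five concentrations, linear interpolation of endpoints. GI50: concentration for 50% inhibition of growth. TGI: concentration producing complete growth inhibition.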

Legend:
Assay in all cases: NCI anticancer screen, dose series, 48 h
NCI-H23 lung = tested on: NCI-H23 lung
BT-549 breast = tested on: BT-549 breast
TK-10 renal = tested on: TK-10 renal
SK-MEL-28 melanoma = tested on: SK-MEL-28 melanoma
SF-268 CNS = tested on: SF-268 CNS
MOLT-4 leukemia = tested on: MOLT-4 leukemia
NCI-H460 lung = tested on: NCI-H460 lung
MDA-MB-231 breast = tested on: MDA-MB-231 breast
SN12C renal = tested on: SN12C renal
HCT-15 colon = tested on: HCT-15 colon
HCT-116 colon = tested on: HCT-116 colon
A498 renal = tested on: A498 renal
SF-539 CNS = tested on: SF-539 CNS
NCI-H226 lung = tested on: NCI-H226 lung
KM12 colon = tested on: KM12 colon
SK-MEL-2 melanoma = tested on: SK-MEL-2 melanoma
ACHN renal = tested on: ACHN renal
T-47D breast = tested on: T-47D breast
RXF 393 renal = tested on: RXF 393 renal
SNB-75 CNS = tested on: SNB-75 CNS
CCRF-CEM leukemia = tested on: CCRF-CEM leukemia
NCI-H522 lung = tested on: NCI-H522 lung
HCC-2998 colon = tested on: HCC-2998 colon
PC-3 prostate = tested on: PC-3 prostate
OVCAR-5 ovarian = tested on: OVCAR-5 ovarian
786-0 renal = tested on: 786-0 renal
HOP-92 NSCLC = tested on: HOP-92 NSCLC
HL-60(TB) leukemia = tested on: HL-60(TB) leukemia
SNB-19 CNS = tested on: SNB-19 CNS
OVCAR-4 ovarian = tested on: OVCAR-4 ovarian
HT29 colon = tested on: HT29 colon
EKVX NSCLC = tested on: EKVX NSCLC
NCI/ADR-RES ovarian = tested on: NCI/ADR-RES ovarian
SR leukemia = tested on: SR leukemia
DU-145 prostate = tested on: DU-145 prostate
U251 CNS = tested on: U251 CNS
IGROV1 ovarian = tested on: IGROV1 ovarian
OVCAR-8 ovarian = tested on: OVCAR-8 ovarian
MCF7 breast = tested on: MCF7 breast
SK-OV-3 ovarian = tested on: SK-OV-3 ovarian
UACC-62 melanoma = tested on: UACC-62 melanoma
A549 NSCLC = tested on: A549 NSCLC
HOP-62 NSCLC = tested on: HOP-62 NSCLC
M14 melanoma = tested on: M14 melanoma
LOX IMVI melanoma = tested on: LOX IMVI melanoma
SF-295 CNS = tested on: SF-295 CNS
UO-31 renal = tested on: UO-31 renal
SW-620 colon = tested on: SW-620 colon
OVCAR-3 ovarian = tested on: OVCAR-3 ovarian
HS 578T breast = tested on: HS 578T breast
SK-MEL-5 melanoma = tested on: SK-MEL-5 melanoma

## CCOC(=O)c1cc(C(=O)c2cc(OC)cc(OC)c2)n2nc(C)ccc12
NCI-H23 lung
  GI50: 1290 nM
  TGI: > 100000 nM
BT-549 breast
  GI50: 1990 nM
  TGI: > 100000 nM
TK-10 renal
  GI50: > 100000 nM
  TGI: > 100000 nM
SK-MEL-28 melanoma
  GI50: > 100000 nM
  TGI: > 100000 nM
SF-268 CNS
  GI50: 676 nM
  TGI: > 100000 nM
MOLT-4 leukemia
  GI50: 527 nM
  TGI: > 100000 nM
NCI-H460 lung
  GI50: 365 nM
  TGI: > 100000 nM
MDA-MB-231 breast
  GI50: 1700 nM
  TGI: > 100000 nM
SN12C renal
  GI50: 692 nM
  TGI: > 100000 nM
HCT-15 colon
  GI50: 280 nM
  TGI: > 100000 nM
HCT-116 colon
  GI50: 331 nM
  TGI: > 100000 nM
A498 renal
  GI50: 388 nM
  TGI: > 100000 nM
SF-539 CNS
  GI50: 349 nM
  TGI: 3020 nM
NCI-H226 lung
  GI50: > 100000 nM
  TGI: > 100000 nM
KM12 colon
  GI50: 254 nM
  TGI: > 100000 nM
SK-MEL-2 melanoma
  GI50: 494 nM
  TGI: > 100000 nM
ACHN renal
  GI50: 731 nM
  TGI: > 100000 nM
T-47D breast
  GI50: 501 nM
  TGI: > 100000 nM
RXF 393 renal
  GI50: 239 nM
  TGI: 3160 nM
SNB-75 CNS
  GI50: 384 nM
  TGI: > 100000 nM
CCRF-CEM leukemia
  GI50: 348 nM
  TGI: > 100000 nM
NCI-H522 lung
  GI50: 303 nM
  TGI: > 100000 nM
HCC-2998 colon
  GI50: 3340 nM
  TGI: > 100000 nM
PC-3 prostate
  GI50: 317 nM
  TGI: > 100000 nM
OVCAR-5 ovarian
  GI50: 2700 nM
  TGI: > 100000 nM
786-0 renal
  GI50: 523 nM
  TGI: > 100000 nM
HOP-92 NSCLC
  GI50: 446 nM
  TGI: > 100000 nM
HL-60(TB) leukemia
  GI50: 248 nM
  TGI: 797 nM
SNB-19 CNS
  GI50: 752 nM
  TGI: > 100000 nM
OVCAR-4 ovarian
  GI50: 1450 nM
  TGI: > 100000 nM
HT29 colon
  GI50: 401 nM
  TGI: > 100000 nM
EKVX NSCLC
  GI50: 975 nM
  TGI: > 100000 nM
NCI/ADR-RES ovarian
  GI50: 308 nM
  TGI: 14800 nM
SR leukemia
  GI50: 75.9 nM
  TGI: > 100000 nM
DU-145 prostate
  GI50: 906 nM
  TGI: > 100000 nM
U251 CNS
  GI50: 549 nM
  TGI: > 100000 nM
IGROV1 ovarian
  GI50: 943 nM
  TGI: > 100000 nM
OVCAR-8 ovarian
  GI50: 1090 nM
  TGI: > 100000 nM
MCF7 breast
  GI50: 313 nM
  TGI: > 100000 nM
SK-OV-3 ovarian
  GI50: 878 nM
  TGI: > 100000 nM
UACC-62 melanoma
  GI50: 477 nM
  TGI: > 100000 nM
A549 NSCLC
  GI50: 766 nM
  TGI: > 100000 nM
HOP-62 NSCLC
  GI50: 691 nM
  TGI: > 100000 nM
M14 melanoma
  GI50: 251 nM
  TGI: > 100000 nM
LOX IMVI melanoma
  GI50: 493 nM
  TGI: > 100000 nM
SF-295 CNS
  GI50: 311 nM
  TGI: 38300 nM
UO-31 renal
  GI50: 698 nM
  TGI: > 100000 nM
SW-620 colon
  GI50: 280 nM
  TGI: > 100000 nM
OVCAR-3 ovarian
  GI50: 289 nM
  TGI: 2110 nM
HS 578T breast
  GI50: 284 nM
  TGI: > 100000 nM
SK-MEL-5 melanoma
  GI50: 276 nM
  TGI: > 100000 nM
